Test results: publication PMC10979453, “Antioxidant and Angiotensin-Converting Enzyme Inhibitory Activity of Faba Bean-Derived Peptides After In Vitro Gastrointestinal Digestion: Insight into Their Mechanism of Action” (Journal of Agricultural and Food Chemistry, 2024)
Like-named read-outs stand apart in the source and are kept apart here. Peptide text beside a SMILES is read from it.

Columns and labels:
[1] = biological target: T1, Angiotensin-converting enzyme (ACE) from rabbit lung (Oryctolagus cuniculus, UniProt P12822); experiment: ACE inhibition kinetics (Lineweaver-Burk and secondary plots); format: biochemical; conditions: HHL 0.5–2 mM, read-out: inhibition constant (Ki)
T1 construct: Angiotensin-converting enzyme (ACE) from rabbit lung (A6778); purchased Sigma-Aldrich A6778; host or cells: rabbit lung (tissue-derived enzyme)
T1 sequence (P12822 34-1310): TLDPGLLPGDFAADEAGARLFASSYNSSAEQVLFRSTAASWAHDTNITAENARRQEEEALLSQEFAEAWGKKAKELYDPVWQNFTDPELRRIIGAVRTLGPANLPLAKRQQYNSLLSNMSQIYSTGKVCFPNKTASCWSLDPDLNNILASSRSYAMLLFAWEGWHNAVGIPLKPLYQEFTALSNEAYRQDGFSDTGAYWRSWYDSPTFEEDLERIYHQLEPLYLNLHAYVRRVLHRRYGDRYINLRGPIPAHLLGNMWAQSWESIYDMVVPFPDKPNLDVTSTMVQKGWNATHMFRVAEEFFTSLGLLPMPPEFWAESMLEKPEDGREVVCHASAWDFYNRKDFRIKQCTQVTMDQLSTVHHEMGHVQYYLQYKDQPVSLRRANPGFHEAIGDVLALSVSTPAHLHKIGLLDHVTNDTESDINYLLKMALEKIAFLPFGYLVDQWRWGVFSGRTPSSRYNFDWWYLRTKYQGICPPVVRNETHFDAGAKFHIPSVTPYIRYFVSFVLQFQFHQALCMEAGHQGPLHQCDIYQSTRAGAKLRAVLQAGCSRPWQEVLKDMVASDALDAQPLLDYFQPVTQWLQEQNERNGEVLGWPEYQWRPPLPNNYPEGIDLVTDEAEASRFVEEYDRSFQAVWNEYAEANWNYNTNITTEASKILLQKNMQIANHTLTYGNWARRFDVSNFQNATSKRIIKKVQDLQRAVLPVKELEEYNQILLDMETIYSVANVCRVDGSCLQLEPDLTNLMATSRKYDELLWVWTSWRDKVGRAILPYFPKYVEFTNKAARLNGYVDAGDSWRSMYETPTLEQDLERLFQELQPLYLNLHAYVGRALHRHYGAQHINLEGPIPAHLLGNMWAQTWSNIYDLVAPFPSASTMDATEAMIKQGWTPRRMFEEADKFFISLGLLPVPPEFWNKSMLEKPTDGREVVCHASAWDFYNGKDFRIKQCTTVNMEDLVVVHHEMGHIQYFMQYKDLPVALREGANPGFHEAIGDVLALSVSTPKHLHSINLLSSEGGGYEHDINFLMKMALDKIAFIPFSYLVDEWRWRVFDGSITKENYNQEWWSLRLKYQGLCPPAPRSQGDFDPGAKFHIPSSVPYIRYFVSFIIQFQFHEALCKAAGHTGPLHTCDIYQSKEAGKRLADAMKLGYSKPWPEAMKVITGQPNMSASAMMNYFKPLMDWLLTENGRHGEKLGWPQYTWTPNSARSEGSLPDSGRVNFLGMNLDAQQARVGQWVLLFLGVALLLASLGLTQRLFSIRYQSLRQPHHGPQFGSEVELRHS
Procedure: A kinetic study was performed following the procedure of Barbana et al. (2011)[23] to determine the inhibition pattern of four faba bean peptides with ACE inhibition activity (VIPTEPPH, VIPTEPPHA, VVIPTEPPHA, and VVIPTEPPH). The initial rate of reaction was measured with different HHL (0.5–2 mM) and peptides concentrations. Lineweaver–Burk double reciprocal plots were built to identify the inhibition pattern.
The ACE inhibition pattern of VIPTEPPH, VIPTEPPHA, VVIPTEPPHA, and VVIPTEPPH was assessed through kinetic experiments. The initial velocity of reaction was measured at different substrate (0.5–2 mM) and peptide concentrations, and Lineweaver–Burk double reciprocal plots were built to identify the inhibition pattern. […] The inhibitor binding site is, therefore, located outside the enzyme active site. The loss of ACE activity in the presence of peptides can, therefore, be explained by conformational changes caused by peptide binding rather than competition for the active site.
The inhibition constant (Ki) was calculated from secondary plots for each peptide. The secondary plots were constructed by plotting the Lineweaver–Burk curve slope against the peptide concentration. The Ki value was calculated from the negative intercept on the X-axis of the secondary plot. […] These Ki values are nearly identical to the IC50, confirming the noncompetitive inhibition pattern. The minor differences in the IC50 and Ki values can be explained by experimental imprecision.

[2] = biological target: T1, Angiotensin-converting enzyme (ACE) from rabbit lung; experiment: in vitro ACE inhibitory activity (HHL substrate); format: biochemical; conditions: for IC50: mean ± SD; for inhibition at 10000 µM: peptide concentration 10 mM
Source text: Angiotensin-converting enzyme (ACE) from rabbit lung (A6778), N-hippuryl–His–Leu hydrate (HHL) (H1635), and captopril were purchased from Sigma-Aldrich (St. Louis, MO, USA).
ACE from rabbits was used for in vitro testing, since rabbit and human ACE are nearly homologous and their active sites are highly similar.[24]

[3] = free amino acids; cited from earlier work
[4] = ABTS free radical scavenging assay; conditions: for ABTS activity, times lower than Trolox: range over the named peptides
Procedure: (§1) For the DPPH, ABTS, and iron chelating assays, the peptides were first screened at a high dose (10 mM). […] The EC50 values were calculated using a four-parameter logistic curve regression, and Trolox was used as a positive control. For the ORAC assay, the results were expressed as μmol of Trolox equivalent per mM of peptides.

[5] = Oxygen Radical Absorption Capacity (ORAC) assay; conditions: for ORAC activity per mg of peptides: as given in the text; for ORAC activity, times higher than Trolox: on a molar basis, range over the named peptides
Procedure: 2,2-Diphenyl-1-picrylhydrazyl (DPPH), 2,2′-azinobis(3-ethylbenzothiazoline-6-sulfonic acid) (ABTS), Oxygen Radical Absorption Capacity (ORAC), and the iron chelating assays were performed following the methods of Orona-Tamayo, Valverde, Nieto-Rendón, and Paredes-López (2015),[17] Re, Pellegrini, Proteggente, Pannala, Yang, and Rice-Evans (1999),[18] Tomer, McLeman, Ohmine, Scherer, Murray, and O’Neill (2007),[19] and of Orona-Tamayo et al. (2015),[17] respectively, as described in Martineau-Côté, Achouri, Wanasundara et al. (2022).[16] For the DPPH, ABTS, and iron chelating assays, the peptides were first screened at a high dose (10 mM). Peptides with antioxidant activity were then tested at different concentrations (0.1–10 mM) to evaluate the dose–response effect. The results were expressed as the half-maximal effective concentration (EC50), which was defined as the required peptide concentration, leading to 50% scavenging or chelating activity. The EC50 values were calculated using a four-parameter logistic curve regression, and Trolox was used as a positive control. For the ORAC assay, the results were expressed as μmol of Trolox equivalent per mM of peptides.

[6] = DPPH free radical scavenging assay; conditions: mean ± SD; tested at 0.1–10 mM
Procedure: as §1

[7] = read-out: ACE Inhibition (IC50 μM)
[8] = read-out: ACE Inhibition (IC50 μg/mL) (converted)

| Compound | Ki [1] | IC50 [2, 7] | IC50 [2, 8] | inhibition at 10000 µM [2] | ORAC activity [3] | also measured |
| --- | --- | --- | --- | --- | --- | --- |
| CC[C@H](C)[C@H](NC(=O)[C@@H](N)C(C)C)C(=O)N1CCC[C@H]1C(=O)N[C@H](C(=O)N[C@@H](CCC(=O)O)C(=O)N1CCC[C@H]1C(=O)N1CCC[C@H]1C(=O)N[C@@H](Cc1c[nH]cn1)C(=O)N[C@@H](C)C(=O)O)[C@@H](C)O [VIPTEPPHA] (H-VIPTEPPHA-OH) | 107 µM | 123 ± 5 µM | 123 µM | 100% | – | – |
| CC[C@H](C)[C@H](NC(=O)[C@@H](N)C(C)C)C(=O)N1CCC[C@H]1C(=O)N[C@H](C(=O)N[C@@H](CCC(=O)O)C(=O)N1CCC[C@H]1C(=O)N1CCC[C@H]1C(=O)N[C@@H](Cc1c[nH]cn1)C(=O)O)[C@@H](C)O [VIPTEPPH] (H-VIPTEPPH-OH) | 87 µM | 90 ± 10 µM | 91.1 µM | 100% | – | – |
| CC[C@H](C)[C@H](NC(=O)[C@@H](NC(=O)[C@@H](N)C(C)C)C(C)C)C(=O)N1CCC[C@H]1C(=O)N[C@H](C(=O)N[C@@H](CCC(=O)O)C(=O)N1CCC[C@H]1C(=O)N1CCC[C@H]1C(=O)N[C@@H](Cc1c[nH]cn1)C(=O)N[C@@H](C)C(=O)O)[C@@H](C)O [VVIPTEPPHA] (H-VVIPTEPPHA-OH) | 54 µM | 50 ± 5 µM | 50 µM | 100% | – | – |
| CC[C@H](C)[C@H](NC(=O)[C@@H](NC(=O)[C@@H](N)C(C)C)C(C)C)C(=O)N1CCC[C@H]1C(=O)N[C@H](C(=O)N[C@@H](CCC(=O)O)C(=O)N1CCC[C@H]1C(=O)N1CCC[C@H]1C(=O)N[C@@H](Cc1c[nH]cn1)C(=O)O)[C@@H](C)O [VVIPTEPPH] (H-VVIPTEPPH-OH) | 45 µM | 43 ± 1 µM | 43.5 µM | 100% | – | – |
| N[C@@H](Cc1c[nH]cn1)C(=O)O [histidine] | – | – | – | – | 78 μMol TE eq/mM | – |
| N[C@@H](Cc1c[nH]c2ccccc12)C(=O)O [tryptophan] | – | – | – | – | 2790 μMol TE eq/mM | – |
| N[C@@H](Cc1ccc(O)cc1)C(=O)O [tyrosine] | – | – | – | – | 1020 μMol TE eq/mM | – |
| TETWNPNHPE [synthesized faba bean-derived peptide, parent protein legumin B] | – | – | – | – | – | ABTS activity, times lower than Trolox [4]: 8 to 66 times; ORAC activity ([5]; as given in the abstract): 2.84 ± 0.08 mM Trolox equivalent/mM; ORAC activity per mg of peptides [5]: 2.3 μMol Trolox eq/mg; ORAC activity, times higher than Trolox [5]: 2.5 to 2.8 times |
| TETWNPNHPEL [synthesized faba bean-derived peptide, parent protein legumin B] | – | – | – | – | – | EC50 ([4]; mean ± SD, tested at 0.1–10 mM): 500 ± 200 µM; ABTS activity, times lower than Trolox [4]: 8 to 66 times; EC50 [6]: 2100 ± 100 µM; ORAC activity per mg of peptides [5]: 1.9 μMol Trolox eq/mg; ORAC activity, times higher than Trolox [5]: 2.5 to 2.8 times |
